Earlier results on 5 compounds are cited in patent US6043276A (Georgetown University School of Medicine, priority 1999, dated 2000).

Series [1] relates to xanthine oxidase. Particulars: Chan et al. 1995; Chang et al. 1994; cited from earlier work.
In series [2] the test system is RT for HIV. Conditions: Kreis et al. 1990; cited from earlier work.
In series [3] the test system is HIV. Particulars: literature; cited from earlier work.
For series [4] the following is noted: Lin et al. 1996; cited from earlier work.
Series [5] relates to integrase protein of HIV-1. Particulars: Fesen et al.; Burke et al.; Mazumder et al.; cited from earlier work.

On to `O=C(O)/C=C/c1ccc(O)c(O)c1` [Caffeic acid], for which the xanthine oxidase inhibition entry in series [1] is reported as “inhibit xanthine oxidase”. In series [2], the “antiviral activity, RT assay for HIV” value was “has antiviral activity”.
With `O=C(/C=C/c1ccc(O)c(O)c1)O[C@H](Cc1ccc(O)c(O)c1)C(=O)O` [Rosemarinic acid], in series [3], the anti-HIV activity result was “possesses anti-HIV activity”.
acetylsalvianolic acid: the antioxidant properties entry in series [4] is given as “antioxidant properties”.
As to `O=C(/C=C/c1ccc(O)c(O)c1)OCCc1ccccc1` [CAPE, Caffeic acid phenethyl esters], the “inhibitory activity on the integrase protein of HIV-1” value in series [5] was “exert inhibitory activity”.
Consider `O=C(/C=C/c1ccc(O)c(O)c1/C=C/c1ccc(O)c(O)c1)O[C@H](Cc1ccc(O)c(O)c1)C(=O)O` [salvianolic acid A], for which the antioxidant properties entry in series [4] is “antioxidant properties”.
